Test results reported in PubChem BioAssay AID330 (DTP/NCI, 2004).
Several values for one entry are separate records, joined by “and”; a condition that tells them apart may be missing. Equal values may be shown once. Inconclusive results and toxic doses are left out. The calls were made as follows: active = survival T/C of 150% or more; inactive = T/C below 125% in these data.

Tested on: P388 leukemia ip, CD2F1 mice, survival T/C
Assay: NCI In Vivo Anticancer Drug Screen. Data for tumor model P388 Leukemia (intraperitoneal) in CD2F1 (CDF1) mice
Settings: endpoint: median survival time, higher = longer survival
How it was run: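 Mice carrying the transplanted tumor received test compound or vehicle. Survival was recorded in each group, and the value is the treated-group measurement divided by that of the vehicle-treated control group.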

[1] = dose: 50.0 mg/kg/injection, schedule: Q01DX005 (ip), vehicle: Klucel (hydroxypropylcellulose) (HPC)
[2] = dose: 12.5 mg/kg/injection, schedule: Q01DX009 (ip), vehicle: distilled water + Tween-80
[3] = dose: 25.0 mg/kg/injection, schedule: Q01DX009 (ip), vehicle: distilled water + Tween-80
[4] = dose: 25.0 mg/kg/injection, schedule: Q01DX005 (ip), vehicle: saline with Tween-80
[5] = dose: 50.0 mg/kg/injection, schedule: Q01DX005 (ip), vehicle: saline with Tween-80
[6] = dose: 100.0 mg/kg/injection, schedule: Q01DX005 (ip), vehicle: Klucel (hydroxypropylcellulose) (HPC)
[7] = dose: 200.0 mg/kg/injection, schedule: Q01DX005 (ip), vehicle: Klucel (hydroxypropylcellulose) (HPC)

Measured: T/C

CCCCCCCCCCC(=O)C(=O)c1ccc(O)c(C)c1O
inactive: dose: 50.0 mg/kg/injection, schedule: Q01DX009 (ip), vehicle: Klucel (hydroxypropylcellulose) (HPC) 100 % of control | dose: 100.0 mg/kg/injection, schedule: Q01DX009 (ip), vehicle: Klucel (hydroxypropylcellulose) (HPC) 99 % of control | dose: 200.0 mg/kg/injection, schedule: Q01DX009 (ip), vehicle: Klucel (hydroxypropylcellulose) (HPC) 110 % of control

C=C(C)c1nc(N)nc(NC)n1
inactive: dose: 100.0 mg/kg/injection, schedule: Q04DX002 (ip), vehicle: Klucel (hydroxypropylcellulose) (HPC) 98 % of control | dose: 200.0 mg/kg/injection, schedule: Q04DX002 (ip), vehicle: Klucel (hydroxypropylcellulose) (HPC) 107 % of control | dose: 400.0 mg/kg/injection, schedule: Q04DX002 (ip), vehicle: Klucel (hydroxypropylcellulose) (HPC) 98 % of control

Cc1c(O)c2ccccc2c2c1sc(NCCO)[n+]2C
inactive: dose: 15.0 mg/kg/injection, schedule: Q01DX005 (ip), vehicle: saline with Tween-80 100 % of control | dose: 30.0 mg/kg/injection, schedule: Q01DX005 (ip), vehicle: saline with Tween-80 105 % of control | dose: 60.0 mg/kg/injection, schedule: Q01DX005 (ip), vehicle: saline with Tween-80 98 % of control and 99 % of control

Cc1ccc(C(=O)C(c2nc3n(c2O)/C(=N/C(=O)Nc2ccc(Cl)cc2)N=N3)c2nc3n(c2O)/C(=N/C(=O)Nc2ccc(Cl)cc2)N=N3)cc1
inactive: dose: 60.0 mg/kg/injection, schedule: Q01DX005 (ip), vehicle: saline 99 % of control | dose: 120.0 mg/kg/injection, schedule: Q01DX005 (ip), vehicle: saline 97 % of control | dose: 240.0 mg/kg/injection, schedule: Q01DX005 (ip), vehicle: saline 87 % of control

CC1(C)COC2(c3ccccc3)N(c3ccccc3)C(=O)ON12 (stereo unspecified)
inactive: dose: 60.0 mg/kg/injection, schedule: Q01DX001 (ip), vehicle: Klucel (hydroxypropylcellulose) (HPC) 100 % of control | dose: 120.0 mg/kg/injection, schedule: Q01DX001 (ip), vehicle: Klucel (hydroxypropylcellulose) (HPC) 100 % of control | dose: 240.0 mg/kg/injection, schedule: Q01DX001 (ip), vehicle: Klucel (hydroxypropylcellulose) (HPC) 103 % of control

Cc1c[nH]c2nc(C)n(-c3ccccc3)c(=N)c12
inactive: dose: 12.5 mg/kg/injection, schedule: Q01DX005 (ip), vehicle: Klucel (hydroxypropylcellulose) (HPC) 100 % of control | dose: 25.0 mg/kg/injection, schedule: Q01DX005 (ip), vehicle: Klucel (hydroxypropylcellulose) (HPC) 93 % of control | [1] 101 % of control and 96 % of control

O=C1OC2(CCCCC2)OC(=O)C1=C/C=C/c1ccc([N+](=O)[O-])o1
inactive: dose: 3.13 mg/kg/injection, schedule: Q01DX009 (ip), vehicle: saline with Tween-80 93 % of control | dose: 6.25 mg/kg/injection, schedule: Q01DX009 (ip), vehicle: saline with Tween-80 88 % of control | dose: 12.5 mg/kg/injection, schedule: Q01DX009 (ip), vehicle: saline with Tween-80 102 % of control | dose: 25.0 mg/kg/injection, schedule: Q01DX009 (ip), vehicle: saline with Tween-80 102 % of control | dose: 50.0 mg/kg/injection, schedule: Q01DX009 (ip), vehicle: saline with Tween-80 100 % of control

CCOC(=O)c1ccc(NC(=O)Nc2nc(C)cs2)cc1
inactive: [2] 104 % of control and 106 % of control | [3] 99 % of control and 107 % of control | dose: 50.0 mg/kg/injection, schedule: Q01DX009 (ip), vehicle: distilled water + Tween-80 109 % of control and 111 % of control | dose: 100.0 mg/kg/injection, schedule: Q01DX009 (ip), vehicle: distilled water + Tween-80 118 % of control

COc1ccc(C2C(C(=O)OCc3ccccc3)=C(C)NC(C)=C2C(=O)OCc2ccccc2)cc1
inactive: dose: 0.78 mg/kg/injection, schedule: Q01DX009 (ip), vehicle: distilled water + Tween-80 98 % of control | dose: 1.56 mg/kg/injection, schedule: Q01DX009 (ip), vehicle: distilled water + Tween-80 93 % of control | dose: 3.13 mg/kg/injection, schedule: Q01DX009 (ip), vehicle: distilled water + Tween-80 88 % of control and 93 % of control | dose: 6.25 mg/kg/injection, schedule: Q01DX009 (ip), vehicle: distilled water + Tween-80 92 % of control | [2] 87 % of control and 92 % of control | [3] 95 % of control

C[CH2][Sn]([CH2]C)[S]CC(N)C(=O)O (stereo unspecified)
inactive: dose: 3.75 mg/kg/injection, schedule: Q01DX005 (ip), vehicle: Klucel (hydroxypropylcellulose) (HPC) 110 % of control | dose: 7.5 mg/kg/injection, schedule: Q01DX005 (ip), vehicle: Klucel (hydroxypropylcellulose) (HPC) 120 % of control

CCOC(=O)c1cc(-c2ccccc2)c(=O)c(OC)nc1-c1ccccc1
inactive: [4] 108 % of control | [5] 118 % of control

COc1cccc2c1C(=O)c1c(O)c3c(c(O)c1C2=O)CC(O)(c1csc(-c2ccncc2)n1)CC3O (stereo unspecified)
inactive: dose: 1.56 mg/kg/injection, schedule: Q01DX009 (ip), vehicle: other 106 % of control | dose: 3.13 mg/kg/injection, schedule: Q01DX009 (ip), vehicle: other 105 % of control | dose: 6.25 mg/kg/injection, schedule: Q01DX009 (ip), vehicle: other 104 % of control | dose: 12.5 mg/kg/injection, schedule: Q01DX009 (ip), vehicle: other 106 % of control | dose: 25.0 mg/kg/injection, schedule: Q01DX009 (ip), vehicle: other 113 % of control and 116 % of control | dose: 50.0 mg/kg/injection, schedule: Q01DX009 (ip), vehicle: other 107 % of control | dose: 100.0 mg/kg/injection, schedule: Q01DX009 (ip), vehicle: other 102 % of control

O=[N+]([O-])c1ccc(C(Nc2nncs2)Nc2nncs2)c([N+](=O)[O-])c1
inactive: [1] 97 % of control | [6] 96 % of control | [7] 100 % of control

COc1cc2c(cc1C(C)c1ccc(C)cc1)OCO2 (stereo unspecified)
inactive: [1] 103 % of control | [6] 110 % of control | [7] 114 % of control

CC(=O)CC(c1ccccc1)C(C(=O)O)c1ccccc1 (stereo unspecified)
inactive: dose: 100.0 mg/kg/injection, schedule: Q04DX003 (ip), vehicle: saline 93 % of control | dose: 200.0 mg/kg/injection, schedule: Q04DX003 (ip), vehicle: saline 100 % of control | dose: 400.0 mg/kg/injection, schedule: Q04DX003 (ip), vehicle: saline 100 % of control

N#Cc1[nH]nc2[nH]c(=S)[nH]c(=S)c12
inactive: dose: 100.0 mg/kg/injection, schedule: Q04DX002 (ip), vehicle: water 113 % of control | dose: 200.0 mg/kg/injection, schedule: Q04DX002 (ip), vehicle: water 110 % of control | dose: 400.0 mg/kg/injection, schedule: Q04DX002 (ip), vehicle: water 102 % of control

Cc1cc2ncn(C(=O)Nc3ccccc3)c2cc1C
inactive: dose: 100.0 mg/kg/injection, schedule: Q04DX003 (ip), vehicle: saline with Tween-80 100 % of control | dose: 200.0 mg/kg/injection, schedule: Q04DX003 (ip), vehicle: saline with Tween-80 90 % of control | dose: 400.0 mg/kg/injection, schedule: Q04DX003 (ip), vehicle: saline with Tween-80 90 % of control

O=C1CN(CCCN2CCOCC2)CC(=O)N2Cc3ccccc3CN12
inactive: dose: 50.0 mg/kg/injection, schedule: Q01DX005 (ip), vehicle: saline 95 % of control | dose: 100.0 mg/kg/injection, schedule: Q01DX005 (ip), vehicle: saline 110 % of control | dose: 200.0 mg/kg/injection, schedule: Q01DX005 (ip), vehicle: saline 108 % of control

COC(=O)C1=C(N)N2C/C(=C/c3cccs3)SC2=C(C(=O)OC)C1c1cccs1 (stereo unspecified)
inactive: dose: 12.5 mg/kg/injection, schedule: Q01DX005 (ip), vehicle: saline with Tween-80 96 % of control | [4] 91 % of control | [5] 86 % of control and 91 % of control

O=C(N/N=C/c1cc(Br)cc(Br)c1[O-])c1ccccc1.O=C(N/N=C/c1cc(Br)cc(Br)c1[O-])c1ccccc1.[Co+2]
inactive: dose: 100.0 mg/kg/injection, schedule: Q01DX001 (ip), vehicle: saline with Tween-80 86 % of control
